The source of these data is DBAASP.

Test systems include Bacillus cereus; Escherichia coli; Escherichia coli UB1005.
What all share (assay): ≥ marks a high value that may be exact or a test limit, other limits are often not marked, values filed in µg/mL are converted to µM
Assay [1] concerns Pseudomonas aeruginosa ATCC 9027.
The test system of assay [2] is Staphylococcus aureus ATCC 6538.
For assay [3], the system named is Escherichia coli ATCC 25922.
For assay [4], the system named is Klebsiella pneumoniae ATCC 700603.
Assay [5] relates to Candida albicans ATCC 10231.
Assay [6] deals with Pseudomonas aeruginosa ATCC 27853.
Assay [7] relates to Staphylococcus aureus ATCC 29213.
The subject of assay [8] is Candida albicans ATCC 2002.
In assay [9] the test system is Staphylococcus aureus ATCC 25923.
For assay [10], the system named is Enterococcus faecalis ATCC 29212.
Assay [11] has as its system Pseudomonas aeruginosa PAO1.

In brackets after ≈: the same amount, converted by molar mass. A value given as a limit tells only on which side of the number the result lay.

As to `CC(C)C[C@H](NC(=O)[C@H](C)NC(=O)[C@H](CC(C)C)NC(=O)[C@H](CCCCN)NC(=O)[C@H](C)NC(=O)[C@H](CC(C)C)NC(=O)[C@H](CCCCN)NC(=O)[C@H](CCCCN)NC(=O)[C@H](C)NC(=O)[C@H](CC(C)C)NC(=O)[C@H](CCCCN)NC(=O)[C@H](CCCCN)NC(=O)[C@H](C)NC(=O)[C@@H](N)Cc1ccccc1)C(N)=O` [FAKKLAKKLAKLAL], the MIC was 64.8 µM (≈ 99.9 µg/mL) in assay [1] and 3.24 µM (≈ 5 µg/mL) in assay [2].

As to `CC[C@H](C)[C@H](NC(=O)[C@@H](NC(=O)[C@@H]1CCCN1C(=O)[C@@H](NC(=O)[C@@H]1CCCN1C(=O)[C@H](CCCCN)NC(=O)[C@H](CCCCN)NC(=O)[C@H](CO)NC(=O)CN)C(C)C)[C@@H](C)CC)C(=O)N[C@@H](Cc1ccc(O)cc1)C(=O)N[C@H]1CSSC[C@@H](C(=O)N[C@@H](CCC(N)=O)C(=O)N[C@@H](CCCN=C(N)N)C(=O)N[C@@H](CCSC)C(=O)O)NC(=O)[C@H](CCCCN)NC(=O)CNC(=O)[C@H](CO)NC(=O)[C@H](CCCN=C(N)N)NC(=O)[C@H](CCCN=C(N)N)NC(=O)[C@H](CCC(N)=O)NC1=O` [GSKKPVPIIYCQRRSGKCQRM], the MIC in assay [3] and in assay [4] was 13.1 µM (≈ 32 µg/mL) in each case.

Take `CC[C@H](C)[C@H](NC(=O)[C@@H]1CCCN1C(=O)[C@H](CO)NC(=O)[C@@H](NC(=O)[C@@H](NC(=O)[C@@H](NC(=O)[C@H](C)NC(=O)[C@H](CC(C)C)NC(=O)[C@H](CCCCN)NC(=O)[C@H](CO)NC(=O)[C@H](C)NC(=O)[C@@H](NC(=O)[C@H](CCCCN)NC(=O)[C@@H](NC(=O)[C@@H](NC(=O)[C@@H](N)CO)[C@@H](C)O)C(C)C)C(C)C)C(C)C)C(C)C)C(C)C)C(=O)N[C@@H](CO)C(=O)N[C@@H](CCCCN)C(=O)NCC(=O)N[C@@H](CO)C(=O)O` [STVKVASKLAVVVSPISKGS]: the minimum inhibitory concentration (MIC) in the assay on Bacillus cereus is at least 131 µM; against Escherichia coli it was above 131 µM.

On to `CC(C)C[C@H](NC(=O)[C@H](CCCCN)NC(=O)[C@H](CCCCN)NC(=O)[C@H](CC(C)C)NC(=O)[C@H](CC(C)C)NC(=O)[C@H](CCCCN)NC(=O)[C@H](CCCCN)NC(=O)[C@H](CC(C)C)NC(=O)[C@H](CCCCN)NC(=O)[C@H](CCCCN)NC(=O)[C@H](CC(C)C)NC(=O)[C@H](CC(C)C)NC(=O)[C@H](CCCCN)NC(=O)[C@H](CCCCN)NC(=O)[C@H](CC(C)C)NC(=O)[C@H](CC(C)C)NC(=O)[C@H](CCCCN)NC(=O)[C@@H](N)Cc1ccc(O)cc1)C(N)=O` [YKLLKKLLKKLKKLLKKL], for which the values for the MIC in assay [5], in assay [6] and in [7] were 27.9 µM (≈ 62.4 µg/mL), 6.31 µM (≈ 14.1 µg/mL) and 18.1 µM (≈ 40.6 µg/mL), respectively.

Regarding `CC[C@H](C)[C@H](NC(=O)[C@H](C)NC(=O)[C@H](CCCN=C(N)N)NC(=O)[C@H](Cc1ccc(O)cc1)NC(=O)[C@H](CC(C)C)NC(=O)[C@H](CC(N)=O)NC(=O)[C@H](Cc1ccc(O)cc1)NC(=O)CNC(=O)[C@H](C)NC(=O)[C@@H](NC(=O)[C@@H](NC(=O)[C@@H](NC(=O)[C@H](CCCN=C(N)N)NC(=O)[C@@H](NC(=O)[C@@H](NC(=O)[C@@H](NC(=O)[C@@H]1CCCN1)C(C)C)C(C)C)[C@@H](C)CC)[C@@H](C)O)C(C)C)C(C)C)C(=O)N[C@@H](CCCCN)C(=O)N[C@@H](CCCCN)C(=O)N[C@@H](CCCCN)C(=O)O` [PVVIRTVVAGYNLYRAIKKK], the MIC in [8] was determined as 16.4 µM (≈ 37.5 µg/mL); in assay [9] it was 43.7 µM (≈ 100 µg/mL).

`CC[C@H](C)[C@H](NC(=O)[C@@H]1CCCN1C(=O)[C@@H](NC(=O)[C@H](CO)NC(=O)[C@H](CO)NC(=O)[C@@H](N)CO)[C@@H](C)CC)C(=O)N[C@@H](CCCCN)C(=O)N[C@@H](CCSC)C(=O)N[C@H](C(=O)N[C@@H](CC(C)C)C(=O)N[C@H](C(=O)N[C@@H](CCCN=C(N)N)C(=O)N[C@@H](C)C(=O)N[C@@H](CC(C)C)C(=O)N[C@H](C(=O)N[C@@H](Cc1ccccc1)C(=O)N[C@H](C(=O)N[C@@H](CCCCN)C(=O)N[C@@H](CO)C(=O)NCC(=O)O)C(C)C)C(C)C)C(C)C)C(C)C` [SSSIPIKMVLVRALVFVKSG]: the MIC was at least 120 µM with Bacillus cereus and above 120 µM against Escherichia coli.

Take `CC(C)C[C@H](NC(=O)[C@H](CCCCN)NC(=O)[C@H](Cc1ccccc1)NC(=O)[C@H](CC(C)C)NC(=O)[C@H](CC(C)C)NC(=O)CNC(=O)[C@H](CCCCN)NC(=O)[C@H](CC(C)C)NC(=O)[C@H](CCCCN)NC(=O)[C@@H]1CCCN1C(=O)[C@H](CC(C)C)NC(=O)[C@H](CC(C)C)NC(=O)[C@H](CC(C)C)NC(=O)[C@H](CCCCN)NC(=O)[C@H](CC(C)C)NC(=O)[C@H](CC(C)C)NC(=O)[C@H](CCCCN)NC(=O)[C@@H](N)Cc1ccc(O)cc1)C(N)=O` [YKLLKLLLPKLKGLLFKL]: the MIC came out at 69.6 µM (≈ 149 µg/mL) in [5], 3.96 µM (≈ 8.48 µg/mL) in assay [6] and 1.14 µM (≈ 2.45 µg/mL) in [7].

Consider `CC[C@H](C)[C@H](NC(=O)[C@H](CCC(=O)O)NC(=O)[C@H](CCC(=O)O)NC(=O)[C@H](CO)NC(=O)[C@H](CC(C)C)NC(=O)[C@H](CC(C)C)NC(=O)[C@H](Cc1c[nH]c2ccccc12)NC(=O)[C@H](CC(N)=O)NC(=O)[C@H](CCC(=O)O)NC(=O)CNC(=O)[C@H](CC(N)=O)NC(=O)[C@H](CCCCN)NC(=O)[C@H](CC(C)C)NC(=O)[C@H](CO)NC(=O)[C@H](Cc1ccc(O)cc1)NC(=O)[C@@H]1CCCN1)C(=O)N[C@H](C(=O)N[C@@H](CCCN=C(N)N)C(=O)N[C@@H](Cc1ccc(O)cc1)C(=O)N1CCC[C@H]1C(=O)O)[C@@H](C)CC` [PYSLKNGENWLLSEEIIRYP], for which the MIC with Bacillus cereus is at least 106 µM; against Escherichia coli, above 106 µM.

For `CC(C)C[C@H](NC(=O)[C@H](C)NC(=O)[C@H](CCCCN)NC(=O)[C@H](C)NC(=O)[C@H](CC(C)C)NC(=O)[C@H](CCCCN)NC(=O)[C@H](CCCCN)NC(=O)[C@H](C)NC(=O)[C@H](CC(C)C)NC(=O)[C@H](CCCCN)NC(=O)[C@H](C)NC(=O)[C@H](CC(C)C)NC(=O)[C@H](CCCCN)NC(=O)[C@H](CCCCN)NC(=O)[C@H](C)NC(=O)[C@@H](N)Cc1ccccc1)C(N)=O` [FAKKLAKLAKKLAKAL], the MIC in assay [1] was 115 µM (≈ 200 µg/mL); in assay [2], above 115 µM.

`CC(C)C[C@H](NC(=O)[C@H](CCCCN)NC(=O)[C@H](CC(C)C)NC(=O)[C@H](CCCCN)NC(=O)[C@H](CC(C)C)NC(=O)[C@H](C)NC(=O)[C@H](CCCCN)NC(=O)[C@H](C)NC(=O)[C@H](CC(C)C)NC(=O)[C@H](CC(C)C)NC(=O)[C@H](CCCCN)NC(=O)[C@H](C)NC(=O)[C@@H](N)Cc1ccccc1)C(N)=O` [FAKLLAKALKLKL]: the MIC is 17.2 µM (≈ 25 µg/mL) in assay [1] and 6.86 µM (≈ 9.99 µg/mL) in assay [2].

`CC(C)C[C@H](NC(=O)[C@H](CCCCN)NC(=O)[C@H](C)NC(=O)[C@H](CC(C)C)NC(=O)[C@H](CC(C)C)NC(=O)[C@H](CCCCN)NC(=O)[C@H](C)NC(=O)[C@@H](N)Cc1ccccc1)C(=O)N[C@@H](C)C(=O)N[C@@H](CCCCN)C(=O)N[C@@H](C)C(=O)N[C@@H](CCCCN)C(=O)N[C@@H](C)C(N)=O` [FAKLLAKLAKAKA]: the MIC in assay [1] is 146 µM (≈ 200 µg/mL); in assay [2] it was 72.8 µM (≈ 99.9 µg/mL).

With `CSCC[C@H](NC(=O)[C@H](CCCN=C(N)N)NC(=O)[C@H](Cc1c[nH]c2ccccc12)NC(=O)[C@H](CCC(N)=O)NC(=O)[C@H](Cc1c[nH]c2ccccc12)NC(=O)[C@H](CCCN=C(N)N)NC(=O)[C@H](CCCN=C(N)N)NC(=O)[C@H](C)NC(=O)[C@H](CCCCN)NC(=O)[C@@H](N)Cc1ccccc1)C(=O)N[C@@H](CCCCN)C(=O)N[C@@H](CCCCN)C(=O)O` [FKARRWQWRMKK], the MIC in [10] is 58.2 µM (≈ 100 µg/mL); in assay [3], 116 µM (≈ 200 µg/mL).

For the molecule `CC[C@H](C)[C@H](NC(=O)[C@H](CCCN=C(N)N)NC(=O)[C@H](CCCN=C(N)N)NC(=O)[C@@H]1CCCN1C(=O)[C@@H]1CCCN1C(=O)[C@H](CCCN=C(N)N)NC(=O)[C@@H]1CCCN1C(=O)[C@H](CCCN=C(N)N)NC(=O)[C@@H]1CCCN1C(=O)[C@H](CC(C)C)NC(=O)[C@H](Cc1ccc(O)cc1)NC(=O)[C@@H]1CCCN1C(=O)[C@@H]1CCCN1C(=O)[C@H](CCCCN)NC(=O)[C@@H]1CCCN1C(=O)[C@@H](N)C(C)C)C(=O)N[C@@H](Cc1ccc(O)cc1)C(=O)N[C@@H](CC(N)=O)C(=O)N[C@@H](CCCN=C(N)N)C(N)=O` [VPKPPYLPRPRPPRRIYNR], the values for the MIC (in the assay with Escherichia coli UB1005; in [11]; in assay [9]) were 2.11 µM (≈ 5 µg/mL), 19.1 µM (≈ 45.2 µg/mL) and 3.37 µM (≈ 8 µg/mL), respectively.

Take `CC(C)C[C@H](NC(=O)[C@H](C)NC(=O)[C@H](CCCCN)NC(=O)[C@H](CCCCN)NC(=O)[C@H](CC(C)C)NC(=O)[C@H](C)NC(=O)[C@H](CCCCN)NC(=O)[C@H](Cc1ccccc1)NC(=O)[C@H](CC(C)C)NC(=O)[C@H](CC(C)C)NC(=O)[C@H](CCCCN)NC(=O)[C@H](C)NC(=O)[C@@H](N)Cc1ccccc1)C(N)=O` [FAKLLFKALKKAL]: the MIC in assay [1] came to 134 µM (≈ 200 µg/mL); in assay [2], 33.5 µM (≈ 50 µg/mL).
